This assay concerns human sperm. As to the kind of experiment: Test for evaluation of the promoting effect on the induction of sperm acrosomal reaction (FITC-concanavalin A fluorescence staining). In kind it is cell-based. Conditions: for acrosomal reaction induction rate (%): incubation time 3; for induction of acrosomal reaction: human sperm, summary in words. Here is the method: Percoll for sperm washing was isotonized and adjusted to 90% with 20 mM Hepes buffered Hanks solution (pH 7.4; supplemented with 1.0 mg/ml BSA). The ejaculated human seminal fluid was allowed to liquefy at room temperature, diluted 2-fold with Hanks solution, and layered on 6.0 ml Percoll. In the Percoll layer, a glass capillary had been inserted in advance. The system was centrifuged at 1000×g for 30 minutes to precipitate motile sperm. The precipitated sperm was aspirated through the capillary and recovered. The sperm was resuspended in Hanks solution at a final concentration of about 50×10^6/ml and cultured at 37° C.
The human sperm acrosomal reaction was monitored by a fluorescence staining technique using FITC-concanavalin A.
As the acrosomal cap splits off on acrosomal reaction, the membrane protein rich in the high-mannose sugar chain on the acrosomal tunica intima becomes exposed. Therefore, the sperm showing a yellow fluorescence in the anterior half of the head was regarded as acrosomal reaction-induced sperm.
Compound A was added to the sperm suspension at a final concentration of 10^−6 or 10^−7 M. Observation was made in the group supplemented with 1 I.U./ml of adenosine deaminase and the non-enzyme-addition group.
Compounds B and C were respectively added to the sperm suspension at a final concentration of 10^−7 M. Observation was made in the groups supplemented with 1 I.U./ml of adenosine deaminase.
Each figure denotes the acrosomal reaction induction rate (%) (the mean±S.E. of 3 observations in Table 1; the mean±S.E. of 5 observations in Tables 2 and 3). In Table 1, the figure in the top row represents the result obtained in the absence of adenosine deaminase and the figures in the bottom row represent the results in the presence of adenosine deaminase.

Each structure is given as a SMILES string.

As for `O=C(O)C[C@H]1CCCCN1C(=O)C=Cc1c(-c2ccccc2)nn2ccccc12` (single isomer, unassigned) [Compound B], the “induction of acrosomal reaction” value was “promoted”. For the same compound, the “acrosomal reaction induction rate (%)” value (Compound B 10^−7 M, supplemented with 1 I.U./ml adenosine deaminase, mean±S.E. of 5 observations) is reported as 41.26 ± 2.18%.

For `O=C(O)CC1=C(n2nc(-c3c(-c4ccccc4)nn4ccccc34)ccc2=O)CCCC1` [Compound C, 3-[2-(2-Carboxymethyl-1-cyclohexenyl)-3-oxo-2,3-dihydropyridazin-6-yl]-2-phenylpyrazolo[1,5-a]pyridine], the “induction of acrosomal reaction” value was “promoted”. Besides, for the setting “Compound C 10^−7 M, supplemented with 1 I.U./ml adenosine deaminase, mean±S.E. of 5 observations”, the “acrosomal reaction induction rate (%)” value is recorded as 48.86 ± 2.57%.

For the compound `O=C(O)CCCn1nc(-c2c(-c3ccccc3)nn3ccccc23)ccc1=O` [Compound A, 3-[2-(3-Carboxypropyl)-3-oxo-2,3-dihydropyridazin-6-yl]-2-phenylpyrazolo[1,5-a]pyridine], the “induction of acrosomal reaction” value was “promoted”. The “acrosomal reaction induction rate (%)” value (Compound A 10^−6 M, absence of adenosine deaminase, mean±S.E. of 3 observations) came to 43.7 ± 2.77%. Moreover, where the note is “Compound A 10^−6 M, presence of adenosine deaminase 1 I.U./ml, mean±S.E. of 3 observations”, the “acrosomal reaction induction rate (%)” value worked out at 63.6 ± 1.84%. Also, the “acrosomal reaction induction rate (%)” value (Compound A 10^−7 M, absence of adenosine deaminase, mean±S.E. of 3 observations) is given as 47.1 ± 2.37%. Moreover, the “acrosomal reaction induction rate (%)” value (Compound A 10^−7 M, presence of adenosine deaminase 1 I.U./ml, mean±S.E. of 3 observations) is recorded as 64.1 ± 1.73%.
